Reference: ChEMBL document CHEMBL1201862, “PubChem BioAssay data set” (2004)
Values belong to the compound of their own block, whether it stands above or below them. The source made the active and inactive calls.

Legend:
Albumin = Albumin (Bos taurus, UniProt P02769); assay: Counterscreen for inhibitors of T-cell receptor (TCR)-CD3 interaction: Fluorescence-based biochemical high throughput dose response assay to identify inhibitors of T-cell receptor (TCR)-CD3 interaction using a TAMRA-labeled BSA probe.; assay type: functional
[1] = HEK293 cell cytotoxicity, dose response, cytotoxicity control, plate reader, cherry-picked samples (AID 743446); assay type: functional, cell-based
[2] = LGR2 antagonists, dose response, cell-based, HEK293, CRE-luciferase reporter, cherry pick, set 2 (AID 743343); assay type: functional;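 note: transfected cells were stimulated with diluted bursicon conditioned medium after compound addition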
[3] = MC4R antagonists, dose response, counter-screen for LGR2 antagonist project, cell-based, plate reader, cherry pick (AID 743444); assay type: functional;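 note: transfected HEK 293 cells stimulated with alpha-MSH peptide; potency of inhibitors of the alpha-MSH evoked signal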
[4] = HepG2 cell cytotoxicity, dose response, cytotoxicity control, plate reader, cherry-pick, antagonist series (AID 743416); assay type: functional, cell-based
[5] = target: T1, DNA repair protein RAD52 homolog (Homo sapiens, UniProt P43351); assay type: functional, biochemical
T1 sequence (P43351 whole entry): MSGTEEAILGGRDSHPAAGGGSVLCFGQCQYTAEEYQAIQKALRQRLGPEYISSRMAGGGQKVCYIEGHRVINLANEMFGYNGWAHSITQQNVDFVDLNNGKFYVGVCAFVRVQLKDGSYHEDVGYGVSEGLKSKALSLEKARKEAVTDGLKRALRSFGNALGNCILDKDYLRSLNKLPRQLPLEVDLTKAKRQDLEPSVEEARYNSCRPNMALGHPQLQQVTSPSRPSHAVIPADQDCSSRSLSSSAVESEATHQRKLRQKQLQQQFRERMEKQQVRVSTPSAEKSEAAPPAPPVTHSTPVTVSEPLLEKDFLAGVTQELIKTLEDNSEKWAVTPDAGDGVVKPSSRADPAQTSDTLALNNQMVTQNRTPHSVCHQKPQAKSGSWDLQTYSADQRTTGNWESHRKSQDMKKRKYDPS

[6] = target: DNA repair and recombination protein RAD54-like (Homo sapiens, UniProt Q92698); assay: inhibitors of human RAD54 branch migration, confirmation, biochemical, fluorescence, cherry-picked samples, dose series (AID 651657); assay type: functional
Chain of DNA repair and recombination protein RAD54-like (Q92698 whole entry): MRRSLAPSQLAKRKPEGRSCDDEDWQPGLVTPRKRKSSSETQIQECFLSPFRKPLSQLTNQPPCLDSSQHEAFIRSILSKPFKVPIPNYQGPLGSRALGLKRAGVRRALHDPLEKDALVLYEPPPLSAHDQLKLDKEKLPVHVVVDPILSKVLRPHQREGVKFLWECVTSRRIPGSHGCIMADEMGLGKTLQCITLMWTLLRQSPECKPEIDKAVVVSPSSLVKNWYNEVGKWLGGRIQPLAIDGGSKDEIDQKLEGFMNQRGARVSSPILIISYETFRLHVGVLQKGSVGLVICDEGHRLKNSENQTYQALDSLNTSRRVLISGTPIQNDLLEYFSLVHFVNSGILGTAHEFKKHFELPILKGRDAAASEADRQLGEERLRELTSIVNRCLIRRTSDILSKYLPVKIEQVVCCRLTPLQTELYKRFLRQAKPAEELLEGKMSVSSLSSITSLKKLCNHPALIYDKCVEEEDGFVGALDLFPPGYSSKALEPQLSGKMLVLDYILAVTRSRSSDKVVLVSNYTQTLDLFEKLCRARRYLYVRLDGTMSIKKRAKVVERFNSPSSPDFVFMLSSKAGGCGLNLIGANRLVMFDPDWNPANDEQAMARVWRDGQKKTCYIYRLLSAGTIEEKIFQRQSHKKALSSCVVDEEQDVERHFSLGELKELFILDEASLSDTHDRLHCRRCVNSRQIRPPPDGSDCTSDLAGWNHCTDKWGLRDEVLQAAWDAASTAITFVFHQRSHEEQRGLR

[7] = Counterscreen for activators of the function of SWI/SNF related, matrix associated, actin dependent regulator of chromatin, subfamily a, member 2 (SMARCA2, BRM): Luminescence-based cell-based high throughput dose response assay to identify non-selective compounds using the VP16 reporter assay.; assay type: functional
[8] = target: SWI/SNF-related matrix-associated actin-dependent regulator of chromatin subfamily A member 2 (Homo sapiens, UniProt P51531); assay: Luminescence-based cell-based high throughput dose response assay to identify activators of the function of SWI/SNF related, matrix associated, actin dependent regulator of chromatin, subfamily a, member 2 (SMARCA2, BRM).; assay type: functional
[9] = HEK293T cell cytotoxicity, dose response, cytotoxicity control for HIV Vif inhibitor project, cherry-picks (AID 652208); assay type: functional, cell-based
Cytochrome P450 3A4 = Cytochrome P450 3A4 (Homo sapiens, UniProt P08684);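 note: CYP3A4 tested as one member of a cytochrome P450 panel screen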
Cytochrome P450 2C19 = Cytochrome P450 2C19 (Homo sapiens, UniProt P33261); assay: Cytochrome panel assay with activity outcomes. Panel member name: p450-cyp2c19 Compounds with AC50 equal or less than 10 uM are considered active; assay type: functional; conditions: read-out: AC50
[10] = target: T2, Low molecular weight phosphotyrosine protein phosphatase (Homo sapiens, UniProt P24666); assay type: functional; conditions: read-out: IC50_Mean
T2 sequence (P24666 whole entry): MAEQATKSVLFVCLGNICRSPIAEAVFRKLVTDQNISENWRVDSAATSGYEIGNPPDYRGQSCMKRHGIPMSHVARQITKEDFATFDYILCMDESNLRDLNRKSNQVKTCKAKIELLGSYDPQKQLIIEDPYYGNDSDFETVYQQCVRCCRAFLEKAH

[11] = target: T2, Low molecular weight phosphotyrosine protein phosphatase; assay type: functional; conditions: read-out: IC50_Mean; remark: listed apart in the source
[12] = target: Scavenger receptor class B member 1 (Mus musculus, UniProt Q61009); assay: inhibitors of SR-BI-mediated HDL uptake, dose response, cell-based, ldlA[mSR-BI] CHO, DiI fluorescence, dry powder, set 10 (AID 624029); assay type: functional
[13] = target: Nuclear receptor subfamily 5 group A member 2 (Homo sapiens, UniProt O00482); assay type: functional, cell-based;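 note: HEK293T cells transfected with LRH-1 and a StAR promoter luciferase reporter; potency for inhibitors that lower LRH-1 driven reporter light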
Steroidogenic factor 1 = Steroidogenic factor 1 (Homo sapiens, UniProt Q13285); assay: Counterscreen for inverse agonists of the liver receptor homolog-1 (LRH-1; NR5A2): Luminescence-based cell-based high throughput dose response assay to identify inverse agonists of the Steroidogenic Factor 1 Nuclear Receptor (SF1; NR5A1).; assay type: functional
[14] = StAR promoter reporter inhibition counter-screen, dose response, counter-screen for LRH-1 inverse agonist project, cell-based, luminescence, luciferase reporter (AID 651969); assay type: functional
Genome polyprotein = Genome polyprotein (dengue virus type 2, UniProt P29990); assay: Dengue-2 NS5 methyltransferase inhibitors, primary screen, biochemical, confirmation dose response (AID 588689); assay type: functional
Chain of Genome polyprotein (P29990 2492-3391 limits assumed): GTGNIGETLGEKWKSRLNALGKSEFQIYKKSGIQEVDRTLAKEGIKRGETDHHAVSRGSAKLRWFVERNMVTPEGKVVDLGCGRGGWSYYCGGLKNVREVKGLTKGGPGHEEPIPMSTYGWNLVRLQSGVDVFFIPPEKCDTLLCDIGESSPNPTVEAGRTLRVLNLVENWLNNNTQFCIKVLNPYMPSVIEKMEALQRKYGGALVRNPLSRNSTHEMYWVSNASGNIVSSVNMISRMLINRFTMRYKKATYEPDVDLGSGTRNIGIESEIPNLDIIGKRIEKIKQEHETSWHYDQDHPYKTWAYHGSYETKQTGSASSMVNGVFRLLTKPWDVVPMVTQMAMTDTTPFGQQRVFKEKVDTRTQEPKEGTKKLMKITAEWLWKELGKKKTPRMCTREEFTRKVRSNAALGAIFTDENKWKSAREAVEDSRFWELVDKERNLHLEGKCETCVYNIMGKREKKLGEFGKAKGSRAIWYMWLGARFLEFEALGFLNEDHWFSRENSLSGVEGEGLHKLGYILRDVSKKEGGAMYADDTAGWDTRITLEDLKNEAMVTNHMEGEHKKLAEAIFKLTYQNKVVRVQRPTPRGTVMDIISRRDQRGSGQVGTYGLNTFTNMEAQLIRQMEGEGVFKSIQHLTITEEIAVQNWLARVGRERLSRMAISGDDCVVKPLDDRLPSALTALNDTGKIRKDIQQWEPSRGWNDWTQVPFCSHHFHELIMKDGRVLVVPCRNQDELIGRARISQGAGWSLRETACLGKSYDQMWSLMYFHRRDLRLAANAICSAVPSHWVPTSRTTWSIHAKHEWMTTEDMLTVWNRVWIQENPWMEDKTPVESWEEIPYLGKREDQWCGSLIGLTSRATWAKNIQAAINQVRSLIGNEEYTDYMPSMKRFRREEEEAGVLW

Fatty acid synthase [15] = target: T3, Fatty acid synthase (Homo sapiens, UniProt P49327); assay: FAS thioesterase domain inhibitors, dose response, biochemical, endpoint fluorescence intensity, uHTS hits (AID 624327); assay type: functional;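 note: fluorescence from hydrolysis of an O-methyl fluorescein acyl ester substrate by the enzyme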
T3 sequence (P49327 whole entry, the tested form may be a part): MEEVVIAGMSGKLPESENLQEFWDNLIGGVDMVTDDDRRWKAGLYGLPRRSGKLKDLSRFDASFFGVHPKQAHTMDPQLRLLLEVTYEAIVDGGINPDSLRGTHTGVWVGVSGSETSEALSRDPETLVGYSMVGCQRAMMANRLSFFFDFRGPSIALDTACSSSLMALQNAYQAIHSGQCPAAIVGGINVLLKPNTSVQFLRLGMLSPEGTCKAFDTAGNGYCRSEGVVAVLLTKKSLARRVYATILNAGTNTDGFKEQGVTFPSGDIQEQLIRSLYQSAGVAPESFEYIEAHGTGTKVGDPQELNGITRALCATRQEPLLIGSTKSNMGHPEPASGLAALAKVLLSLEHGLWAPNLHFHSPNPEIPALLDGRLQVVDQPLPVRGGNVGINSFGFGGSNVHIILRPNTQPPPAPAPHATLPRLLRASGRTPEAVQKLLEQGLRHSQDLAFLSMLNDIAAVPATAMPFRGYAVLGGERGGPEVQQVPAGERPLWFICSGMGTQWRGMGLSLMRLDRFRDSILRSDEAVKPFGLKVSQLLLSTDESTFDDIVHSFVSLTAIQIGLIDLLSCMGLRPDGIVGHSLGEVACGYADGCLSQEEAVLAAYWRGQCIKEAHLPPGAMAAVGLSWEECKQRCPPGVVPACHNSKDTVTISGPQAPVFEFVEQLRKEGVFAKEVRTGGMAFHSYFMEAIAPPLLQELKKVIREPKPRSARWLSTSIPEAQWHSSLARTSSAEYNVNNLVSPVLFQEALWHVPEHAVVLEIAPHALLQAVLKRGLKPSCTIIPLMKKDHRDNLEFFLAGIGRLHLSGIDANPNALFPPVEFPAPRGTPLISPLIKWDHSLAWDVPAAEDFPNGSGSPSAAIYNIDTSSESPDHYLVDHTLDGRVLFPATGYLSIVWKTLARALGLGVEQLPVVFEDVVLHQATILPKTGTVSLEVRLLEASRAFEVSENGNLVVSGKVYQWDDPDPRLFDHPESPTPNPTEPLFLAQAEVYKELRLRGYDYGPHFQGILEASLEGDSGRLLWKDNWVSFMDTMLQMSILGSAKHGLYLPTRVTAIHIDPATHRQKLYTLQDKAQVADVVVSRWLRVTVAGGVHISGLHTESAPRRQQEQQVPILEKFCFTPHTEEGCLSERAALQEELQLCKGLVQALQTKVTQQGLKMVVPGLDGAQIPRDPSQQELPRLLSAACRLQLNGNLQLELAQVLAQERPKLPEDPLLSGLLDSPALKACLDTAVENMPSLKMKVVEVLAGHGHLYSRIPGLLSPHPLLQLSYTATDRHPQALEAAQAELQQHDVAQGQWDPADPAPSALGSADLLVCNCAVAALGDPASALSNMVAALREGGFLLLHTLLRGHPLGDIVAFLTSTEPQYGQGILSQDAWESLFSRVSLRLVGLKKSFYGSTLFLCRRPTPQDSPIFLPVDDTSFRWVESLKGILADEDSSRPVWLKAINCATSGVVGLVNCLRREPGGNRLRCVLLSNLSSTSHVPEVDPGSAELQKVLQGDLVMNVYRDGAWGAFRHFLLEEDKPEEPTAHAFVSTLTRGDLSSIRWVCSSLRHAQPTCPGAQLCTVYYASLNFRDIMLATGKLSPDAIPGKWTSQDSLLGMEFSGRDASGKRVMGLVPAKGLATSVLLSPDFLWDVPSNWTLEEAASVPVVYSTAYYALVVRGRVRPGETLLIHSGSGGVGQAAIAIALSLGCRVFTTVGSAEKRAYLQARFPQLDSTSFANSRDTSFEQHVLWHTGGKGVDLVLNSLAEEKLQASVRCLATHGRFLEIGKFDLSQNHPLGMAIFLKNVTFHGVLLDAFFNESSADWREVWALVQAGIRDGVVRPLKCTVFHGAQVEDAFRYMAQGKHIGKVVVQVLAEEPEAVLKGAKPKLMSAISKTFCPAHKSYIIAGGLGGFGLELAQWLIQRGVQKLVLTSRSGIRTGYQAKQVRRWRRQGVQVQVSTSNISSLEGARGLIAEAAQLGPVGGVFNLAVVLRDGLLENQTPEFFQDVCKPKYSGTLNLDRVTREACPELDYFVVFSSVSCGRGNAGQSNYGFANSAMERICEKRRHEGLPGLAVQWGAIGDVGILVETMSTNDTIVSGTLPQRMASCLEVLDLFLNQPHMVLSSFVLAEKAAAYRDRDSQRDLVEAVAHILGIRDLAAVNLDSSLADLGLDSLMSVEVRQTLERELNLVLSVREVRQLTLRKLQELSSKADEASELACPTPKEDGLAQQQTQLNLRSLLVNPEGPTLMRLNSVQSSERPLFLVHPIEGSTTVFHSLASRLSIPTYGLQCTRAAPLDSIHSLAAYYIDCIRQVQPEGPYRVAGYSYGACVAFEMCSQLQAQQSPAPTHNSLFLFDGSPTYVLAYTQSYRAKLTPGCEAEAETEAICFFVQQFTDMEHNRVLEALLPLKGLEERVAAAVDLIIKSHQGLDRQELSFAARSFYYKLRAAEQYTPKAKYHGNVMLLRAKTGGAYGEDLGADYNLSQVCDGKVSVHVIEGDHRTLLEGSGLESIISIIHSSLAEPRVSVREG

Fatty acid synthase [16] = target: T3, Fatty acid synthase; assay: FAS thioesterase domain inhibitors, dose response, biochemical, kinetic fluorescence intensity (AID 624326); assay type: functional;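 note: rate of fluorescence rise from hydrolysis of a fluorogenic O-methyl fluorescein ester substrate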
[17] = target: T4, Rac GTPase-activating protein 1 (Homo sapiens, UniProt Q9H0H5); assay: MgcRacGAP GTPase-activating activity inhibitors, confirmation, biochemical, ADP Hunter fluorescence, primary and confirmatory (AID 624330); assay type: functional
T4 sequence (Q9H0H5 whole entry): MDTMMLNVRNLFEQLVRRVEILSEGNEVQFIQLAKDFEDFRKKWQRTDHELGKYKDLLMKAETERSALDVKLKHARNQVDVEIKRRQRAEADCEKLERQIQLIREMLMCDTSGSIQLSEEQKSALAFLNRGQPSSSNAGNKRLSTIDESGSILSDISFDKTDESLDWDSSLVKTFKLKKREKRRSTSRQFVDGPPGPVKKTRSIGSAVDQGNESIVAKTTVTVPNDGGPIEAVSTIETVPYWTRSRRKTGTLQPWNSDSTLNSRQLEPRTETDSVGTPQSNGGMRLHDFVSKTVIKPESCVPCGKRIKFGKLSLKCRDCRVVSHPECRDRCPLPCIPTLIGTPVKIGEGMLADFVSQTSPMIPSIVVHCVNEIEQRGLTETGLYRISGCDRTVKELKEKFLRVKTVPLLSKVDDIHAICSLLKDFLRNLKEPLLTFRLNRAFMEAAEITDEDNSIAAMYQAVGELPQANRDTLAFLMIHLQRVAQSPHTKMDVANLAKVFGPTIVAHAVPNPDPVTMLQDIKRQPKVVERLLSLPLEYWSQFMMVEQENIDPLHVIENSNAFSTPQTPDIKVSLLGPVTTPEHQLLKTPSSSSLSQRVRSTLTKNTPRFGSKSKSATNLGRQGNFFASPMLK

[18] = target: Mitochondrial peptide methionine sulfoxide reductase (Bos taurus, UniProt P54149); assay type: functional;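 note: absorbance read-out, biochemical high-throughput dose-response screen for MsrA inhibitors, confirmatory; recombinant bovine MsrA coupled to E. coli TrxB with NADPH and selenocystamine; potency is for inhibitors of MsrA activity on DMSO substrate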
Chain of Mitochondrial peptide methionine sulfoxide reductase (P54149 whole entry, the tested form may be a part): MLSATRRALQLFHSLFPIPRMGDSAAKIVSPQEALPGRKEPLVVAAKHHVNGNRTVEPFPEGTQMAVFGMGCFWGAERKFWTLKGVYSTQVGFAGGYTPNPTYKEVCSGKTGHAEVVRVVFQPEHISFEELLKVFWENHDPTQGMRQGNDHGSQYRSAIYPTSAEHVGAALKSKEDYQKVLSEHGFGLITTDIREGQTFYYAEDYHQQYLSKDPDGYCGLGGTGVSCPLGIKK

[19] = target: T5, Sentrin-specific protease 1 (Homo sapiens, UniProt Q9P0U3); assay: Dose response confirmation of small molecule inhibitors of the catalytic domain of the SUMO protease, SENP1 in a FRET assay.; assay type: functional; conditions: read-out: IC50_Mean
T5 sequence (Q9P0U3 whole entry, the tested form may be a part): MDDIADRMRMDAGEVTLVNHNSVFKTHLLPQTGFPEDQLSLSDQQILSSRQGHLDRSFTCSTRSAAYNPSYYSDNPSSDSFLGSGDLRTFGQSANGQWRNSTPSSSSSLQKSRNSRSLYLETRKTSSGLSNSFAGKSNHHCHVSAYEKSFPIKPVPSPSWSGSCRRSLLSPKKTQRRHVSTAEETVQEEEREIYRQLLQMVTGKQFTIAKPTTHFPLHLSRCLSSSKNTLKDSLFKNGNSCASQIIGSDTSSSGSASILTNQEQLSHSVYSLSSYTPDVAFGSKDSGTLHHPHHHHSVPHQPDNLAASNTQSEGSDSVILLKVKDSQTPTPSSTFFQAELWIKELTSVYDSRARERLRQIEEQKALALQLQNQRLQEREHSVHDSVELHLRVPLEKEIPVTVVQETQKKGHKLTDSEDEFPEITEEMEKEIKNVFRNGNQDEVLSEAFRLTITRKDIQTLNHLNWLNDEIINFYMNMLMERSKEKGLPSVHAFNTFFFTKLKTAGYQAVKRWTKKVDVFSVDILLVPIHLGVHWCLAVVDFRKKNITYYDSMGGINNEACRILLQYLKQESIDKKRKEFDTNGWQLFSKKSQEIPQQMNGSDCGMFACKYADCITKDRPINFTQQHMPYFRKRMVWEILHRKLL

[20] = target: T5, Sentrin-specific protease 1; assay: potency of human SENP1 inhibitors, dose response, biochemical, kinetic FRET (AID 651697); assay type: functional; conditions: read-out: IC50_Mean
[21] = target: T6, Corticotropin-releasing factor receptor 2/Corticotropin-releasing factor-binding protein (Homo sapiens, UniProt P24387+Q13324); assay: Dose Response confirmation of uHTS hits for small molecule antagonists of the CRF-binding protein and CRF-R2 receptor complex.; assay type: functional; conditions: read-out: IC50_Mean
T6 sequence (Q13324 whole entry): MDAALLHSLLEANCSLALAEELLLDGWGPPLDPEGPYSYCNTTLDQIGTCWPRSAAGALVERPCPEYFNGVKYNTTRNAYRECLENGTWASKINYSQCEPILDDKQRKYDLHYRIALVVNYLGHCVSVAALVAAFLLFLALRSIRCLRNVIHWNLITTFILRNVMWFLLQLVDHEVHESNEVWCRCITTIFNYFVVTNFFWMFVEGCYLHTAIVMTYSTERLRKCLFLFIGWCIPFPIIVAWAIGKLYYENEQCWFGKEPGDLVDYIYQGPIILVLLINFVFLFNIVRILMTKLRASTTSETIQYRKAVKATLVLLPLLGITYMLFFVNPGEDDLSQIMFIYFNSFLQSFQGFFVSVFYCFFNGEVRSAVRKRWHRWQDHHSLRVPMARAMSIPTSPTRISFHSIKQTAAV
T6 sequence (P24387 whole entry): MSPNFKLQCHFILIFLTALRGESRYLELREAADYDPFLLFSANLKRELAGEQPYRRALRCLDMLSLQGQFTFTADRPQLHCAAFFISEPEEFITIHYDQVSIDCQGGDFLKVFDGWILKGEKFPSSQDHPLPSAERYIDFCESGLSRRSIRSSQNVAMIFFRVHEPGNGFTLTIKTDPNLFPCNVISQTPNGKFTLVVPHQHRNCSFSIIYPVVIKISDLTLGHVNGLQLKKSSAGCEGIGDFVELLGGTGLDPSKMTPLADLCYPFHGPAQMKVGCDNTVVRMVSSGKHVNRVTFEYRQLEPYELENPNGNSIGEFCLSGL

[22] = target: T6, Corticotropin-releasing factor receptor 2/Corticotropin-releasing factor-binding protein; assay: activators of CRF receptor 2 with binding protein – uHTS hits, confirmation (AID 602473); assay type: functional; conditions: read-out: EC50_Mean
[23] = target: Hepatocyte nuclear factor 4-alpha (Homo sapiens, UniProt P41235); assay type: functional, cell-based;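 note: biochemical luminescence-based dose-response counterscreen measuring inhibition of HNF4 dimerization, run alongside a screen for blockers of ABHD5–perilipin-5 interaction; split luciferase complementation of HNF4 fusion proteins in cell lysate measuring dimerization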
[24] = T. cruzi intracellular amastigote growth inhibition, dose response, imaging, CA-I/72 strain, bovine embryo skeletal muscle, dry powder (AID 651885); assay type: functional, cell-based
[25] = T. cruzi growth inhibition in host cells, dose response, cell-based, plate reader, dry powder, set 2 (AID 652275); assay type: functional
Protein Wnt-3a = Protein Wnt-3a (Mus musculus, UniProt P27467); assay: SAR analysis of small molecule antagonists of Gli-SUFU in a Wnt3a luminescent reporter assay.; assay type: functional

IC50 (Albumin): > 94.2 µM (inactive)
Compound: NNC(=O)c1[nH]cnc1C(=O)Nc1ccccn1

IC50 [10]: 12.3 µM (active) | IC50 [11]: 21.1 µM (inactive)
Compound: CCOCCCNc1nc(-c2ccccc2)nc2ccccc12

AC50 [12]: 61 µM (active)
Compound: Cc1ccc(OCc2cc(C(=O)N3CCCC(O)C3)no2)cn1 (stereo unspecified)

IC50 [19]: 13.2 µM (active) | IC50 [20]: 13.9 µM (active) | IC50 [21]: > 47.1 µM (inactive) | EC50 [22]: > 53 µM (inactive)
Compound: C=CCNC(=O)c1cccc2c1C(=O)c1ccc(N3CCOCC3)cc1S2(=O)=O

IC50 [23]: 2.93 µM (active)
Compound: CC(c1nc2ccccc2[nH]1)n1c(=O)c(-c2ccco2)nc2ccccc21 (stereo unspecified)

IC50 (Protein Wnt-3a): > 21.8 µM (inactive)
Compound: O=C(Nc1cc(N2CCCCC2)ncn1)c1ccc2ccccc2c1

Second part, the compound before the results:

Compound: O=C(NC1(Cc2ccccc2)CCN(Cc2ccc(-c3ccccc3)cc2)C1=O)c1ccccc1 (stereo unspecified)
AC50 [1]: > 52 µM (inactive) | AC50 [2]: 5.14 µM (active) | AC50 [3]: 10.1 µM (active) | AC50 [4]: > 52 µM (inactive)

Compound: Cc1ccc(-c2nc(NCCN(C)C)c3ccccc3n2)cc1
AC50 [5]: 8.93 µM (active) | AC50 [6]: 12.6 µM (active) | EC50 [7]: > 91.2 µM (inactive) | EC50 [8]: 37.1 µM (inactive)

Compound: COC(=O)c1ccc(Oc2coc3cc(OCc4cnn(-c5ccccc5)c4)ccc3c2=O)cc1
AC50 [9]: 38.3 µM (active) | AC50 (Cytochrome P450 3A4): inconclusive | AC50 (Cytochrome P450 2C19): 0.708 µM (inconclusive)

Compound: CCn1cc(Br)c(C(=O)Nc2ccccc2C(=O)OC)n1
IC50 [13]: 35.9 µM (inactive) | IC50 (Steroidogenic factor 1): 10.5 µM (inactive) | IC50 [14]: 35.9 µM (inactive)

Compound: CSc1nc(N)c(N=Nc2ccc([As](=O)(O)O)cc2)c(O)n1
IC50 (Genome polyprotein): 57.3 µM (active) | IC50 (Fatty acid synthase [15]): 11.4 µM (active) | IC50 (Fatty acid synthase [16]): 4.99 µM (active) | IC50 [17]: 39.9 µM (active) | IC50 [18]: 9.91 µM (active)

Compound: Cc1cc(C(=O)Nc2cccc3c2O[C@@H](CN(C)Cc2ccc(Oc4ccccc4)cc2)[C@H](C)CN([C@@H](C)CO)C3=O)n(C)n1
IC50 [24]: > 20 µM (inactive) | AC50 [25]: 1.28 µM (active)
